We go through six compounds from patent publication US20250345317A1, “New pharmaceutical compounds, methods and uses thereof” (BBIT-THERAPEUTICS, LDA., priority 2020, published 2025).

What all share (assay type): cell-based, human
One assay has as its system T47D. Description: Growth inhibition, SRB assay, T47D. As to conditions: Homo sapiens, 48 h, BRCA1 wild-type, 48 hours (second Table 2). The text has this:
(§1) Table 2 refers to the growth inhibitory effect of COMP, olaparib and cisplatin (CDDP) in a panel of human immortalized breast (T47D, MCF-7, MDA-MB-231, MDA-MB-468, SK-BR-3 and HCC1937), ovarian and endocervical (OCVAR, SKOV-3, […],IGROV-1 and HeLa), pancreatic (PANC-1 and MIAPACA), neuroblastoma (SHSY-5Y), lung (NCI-H460), prostate (VCaP) melanoma (A375 and SK-MEL-5) and glioblastoma (SF-208) cancer cells, immortalized normal MCF10a and HFF1 human cells, and patient-derived ovarian (PD-OVCA #1, #9, #41, #49 and #62) cancer cells. […] Data are mean±SEM (n=5).
(§2) In an embodiment, IC50 values were determined by Sulforhodamine B (SRB) or MTS [3-(4,5-dimethylthiazol-2-yl)-5-(3-carboxymethoxyphenyl)-2-(4-sulfophenyl)-2H-tetrazolium] assay in immortalized and PD-OVCA cells, respectively. Cancer cells were plated in 96-well plates and incubated for 24 hours. Cells were then exposed to serial dilutions of compounds for 48 hours. The solvent DMSO corresponding to the maximum concentration used in these assays (0.025%) was included as control. Results are the mean±S.E.M. of 3-5 independent experiments.
On the technique in general: Sulforhodamine B stains cellular protein and so reports cell mass.

In a further assay the test system is HFF-1. Kind of assay: Growth inhibition, SRB assay, normal HFF-1 cells. The conditions noted are these: Homo sapiens, HFF-1, 48 h, HFF1 normal cells, 48 hours (second Table 2).
Text: as §1, §2

Another assay deals with MDA-MB-468. Kind of assay: Growth inhibition, SRB assay, MDA-MB-468. The conditions noted are these: MDA-MB-468, BRCA1 loss of heterozygosity, 48 hours (second Table 2).
Text: as §1, §2

A further assay relates to MCF-7. Kind of assay: Growth inhibition, SRB assay, MCF-7. The conditions noted are these: Homo sapiens, MCF7, 48 h, MCF-7, BRCA1 wild-type, 48 hours (second Table 2).
Text: as §1, §2

In another assay the test system is HCC1937 (5382insC). Kind of assay: Growth inhibition, SRB assay, HCC1937. The conditions noted are these: Homo sapiens, HCC1937, 48 h, HCC1937, BRCA1 mutant, 48 hours (second Table 2).
Text: as §1, §2

A further assay deals with SK-BR-3. Description: Growth inhibition, SRB assay, SK-BR-3. The conditions noted are these: Homo sapiens, SK-BR-3, 48 h, SK-BR-3, BRCA1 loss of heterozygosity, 48 hours (second Table 2).
Text: as §1, §2

A further assay relates to SKOV-3. Description: Growth inhibition, SRB assay, SKOV-3. As to conditions: Homo sapiens, SK-OV-3, 48 h, Skov-3, BRCA1 wild-type, 48 hours (second Table 2).
Text: as §1, §2

The test system of another assay is MDA-MB-231. Description: Growth inhibition, SRB assay, MDA-MB-231. The conditions noted are these: Homo sapiens, MDA-MB-231, 48 h, MDA-MB-231, BRCA1 loss of heterozygosity, 48 hours (second Table 2).
Text: as §1, §2

The subject of another assay is OVCAR-3. Kind of assay: Growth inhibition, SRB assay, OVCAR-3. As to conditions: OVCAR-3, BRCA1 wild-type, 48 hours (second Table 2).
Text: as §1, §2

Assay [1] relates to IGROV-1 (mutBRCA1 280delA; mutBRCA2 3320del1). Description: Growth inhibition, SRB assay, IGROV-1. The conditions noted are these: Homo sapiens, IGROV-1, 48 h, Igrov-1, BRCA1 mutant, 48 hours (second Table 2).
Text: as §1, §2

A word on the IC50: it is the concentration that inhibits the measured activity by half. Lower therefore signals inhibition by little substance. As to `CCC1CN(C)[C@H]2Cc3c([nH]c4ccccc34)/C(=N/Nc3ccccc3)C[C@H]1[C@@H]2C(=O)OC` (stereo partly drawn) [DH2], the IC50 is 23 µM with T47D; 20.5 µM in the assay with HFF-1; 31.5 µM in the assay on MDA-MB-468; above 50 µM with MCF-7; 19.5 µM with HCC1937 (5382insC); 18 µM with SK-BR-3. In addition, the IC50 was 18.8 µM in the assay on SKOV-3, 23.2 µM in the assay on MDA-MB-231, above 50 µM in the assay with OVCAR-3 and 12.7 µM in [1].
Take `CC[C@H]1CN(C)C2Cc3c([nH]c4ccccc34)/C(=N/NC(=S)NCc3ccccn3)C[C@H]1[C@@H]2C(=O)OC` [DS3]: the IC50 with T47D turned out to be 27.5 µM; in the assay with HFF-1 it was 18.6 µM; in the assay with MDA-MB-468 (Homo sapiens, MDA-MB-468, 48 h), 15.5 µM; in the assay with MCF-7, 14.4 µM; in the assay with HCC1937 (5382insC), 19.5 µM; in the assay with SK-BR-3 it was 20.5 µM. The IC50 with SKOV-3 was 28.7 µM; in the assay on MDA-MB-231, 8.7 µM; in the assay with OVCAR-3 (Homo sapiens, OVCAR-3, 48 h) it was 22.2 µM; in assay [1], 17.5 µM.
On to `CCC1CN(C)[C@H]2Cc3c([nH]c4ccccc34)/C(=N/Nc3ccc(Br)cn3)C[C@H]1[C@@H]2C(=O)OC` (stereo partly drawn) [TH4], for which the 50% inhibitory concentration (IC50) came out at 23.5 µM with T47D; 16.5 µM with HFF-1; 16 µM in the assay on MDA-MB-468 (Homo sapiens, MDA-MB-468, 48 h); 12.5 µM with MCF-7; 22.5 µM in the assay on HCC1937 (5382insC); 16 µM in the assay with SK-BR-3. Besides, the concentration for half-maximal inhibition (IC50) in the assay on SKOV-3 was found to be 14.5 µM; with MDA-MB-231, 13.7 µM; with OVCAR-3 (Homo sapiens, OVCAR-3, 48 h) it was 22 µM; in assay [1], 14 µM.
On to `CCC1CN(C)[C@H]2Cc3c([nH]c4ccccc34)/C(=N/NC(=O)OCc3ccc(OC)cc3)C[C@H]1C2C(=O)OC` (stereo partly drawn) [DS2], for which the IC50 was determined as 25.5 µM with T47D; 45.5 µM with HFF-1; 33 µM with MDA-MB-468 (Homo sapiens, MDA-MB-468, 48 h); 39.3 µM in the assay with MCF-7; 27 µM with HCC1937 (5382insC); 29.5 µM with SK-BR-3. Further, the IC50 was 47.5 µM in the assay on SKOV-3; 31 µM in the assay on MDA-MB-231; 43.3 µM with OVCAR-3 (Homo sapiens, OVCAR-3, 48 h); 28.5 µM in assay [1].
Take `CCC1CN(C)[C@H]2Cc3c([nH]c4ccccc34)C(=O)C[C@H]1[C@@H]2C(=O)OC` (stereo partly drawn) [D]: the IC50 was above 50 µM in the assay with T47D; above 50 µM with HFF-1; above 50 µM in the assay with MDA-MB-468 (Homo sapiens, MDA-MB-468, 48 h); above 50 µM in the assay on MCF-7; above 50 µM with HCC1937 (5382insC); above 50 µM in the assay with SK-BR-3. Moreover, the IC50 in the assay on SKOV-3 is above 50 µM; in the assay with MDA-MB-231, above 50 µM; in the assay on OVCAR-3 (Homo sapiens, OVCAR-3, 48 h), above 50 µM; in assay [1] it was above 50 µM.
In the case of `CC[C@@H]1CN(C)C2Cc3c([nH]c4ccccc34)[C@@H](OC(=O)C34CC5CC(CC(C5)C3)C4)C[C@H]1[C@@H]2C(=O)OC` [BE1], the IC50 was above 50 µM in the assay on T47D; above 50 µM in the assay with HFF-1; above 50 µM with MDA-MB-468 (Homo sapiens, MDA-MB-468, 48 h); above 50 µM with MCF-7; above 50 µM in the assay on HCC1937 (5382insC); above 50 µM in the assay on SK-BR-3. For the same compound, the half-inhibitory concentration (IC50) in the assay with SKOV-3 is above 50 µM; in the assay with MDA-MB-231 it was above 50 µM; in the assay with OVCAR-3 (Homo sapiens, OVCAR-3, 48 h) it was above 50 µM; in assay [1], above 50 µM.
